Counter-ions that a name gives are not always drawn. Like-named read-outs stand apart in the source and are kept apart here. Each block holds one compound with its values, some of them ahead of it.
Experiments:
[1] = biological target: T1, carnitine palmitoyl transferase in liver mitochondria (Rattus norvegicus, UniProt P32198); assay: Inhibition of carnitine palmitoyl transferase activity in liver mitochondria; type: biochemical; conditions: for inhibition at 0.05 µM / inhibition at 0.1 µM / inhibition at 0.5 µM / inhibition at 1 µM / inhibition at 2 µM / inhibition at 5 µM / inhibition at 10 µM / inhibition at 50 µM: read-out: % Inhibition ± SEM, liver; for inhibition at 0.1 µM: 0.10 μM; for inhibition at 0.5 µM: 0.50 μM
T1 construct: from tissue; host or cells: rat liver mitochondria
T1 sequence (P32198 1-773): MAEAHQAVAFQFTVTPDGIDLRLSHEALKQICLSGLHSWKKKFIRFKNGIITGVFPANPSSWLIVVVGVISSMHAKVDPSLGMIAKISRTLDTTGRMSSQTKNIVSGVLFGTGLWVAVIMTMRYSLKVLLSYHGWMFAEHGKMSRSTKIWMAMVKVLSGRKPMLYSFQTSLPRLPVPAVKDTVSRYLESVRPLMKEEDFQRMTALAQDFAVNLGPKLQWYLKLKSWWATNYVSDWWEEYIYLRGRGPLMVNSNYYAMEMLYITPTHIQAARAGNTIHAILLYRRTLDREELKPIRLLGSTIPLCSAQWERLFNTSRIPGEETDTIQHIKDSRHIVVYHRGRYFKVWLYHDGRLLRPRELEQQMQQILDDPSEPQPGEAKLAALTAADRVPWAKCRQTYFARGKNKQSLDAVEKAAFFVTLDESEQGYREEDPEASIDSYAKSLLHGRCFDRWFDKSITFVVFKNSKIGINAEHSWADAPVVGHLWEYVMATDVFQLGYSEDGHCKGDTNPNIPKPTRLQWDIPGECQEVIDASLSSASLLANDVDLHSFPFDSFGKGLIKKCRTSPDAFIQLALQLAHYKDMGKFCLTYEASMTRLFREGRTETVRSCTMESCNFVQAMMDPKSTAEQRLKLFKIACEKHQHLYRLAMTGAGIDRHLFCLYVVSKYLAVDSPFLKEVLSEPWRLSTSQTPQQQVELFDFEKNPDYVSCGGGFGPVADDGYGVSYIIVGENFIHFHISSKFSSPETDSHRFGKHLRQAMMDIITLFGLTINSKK
Experimental: (§1) The following assay measures the ability of the compounds of the invention to inhibit the activity of carnitine palmitoyl transferase in liver and heart mitochondria.
(§2) According to this procedure, the following steps are carried out:
(§3) (1) Isolation of Mitochondria
(§4) (a) liver mitochondria: 5 g of liver from a 300 g rat is minced, homogenized with 40 ml (30 ml for heart mitochondria) of 0.25M sucrose, 10 mM Tris and 1 mM EDTA, pH 7.4 and centrifuged at 600 xg for 15 minutes. The decanted supernatant is centrifuged at 7,900 xg for 15 minutes. The resultant pellet is resuspended in 20 ml total (16 ml total for the heart mitochondria) of sucrose buffer and centrifuged 7,900 xg for 15 minutes. The pellet is then resuspended in 30 ml total (11 ml for heart mitochondria) of 0.15M KCl, 5 mM Tris.Cl, pH 7.4 and this is used as the enzyme source.
(§5) To 28 3 ml glass test tubes is added 350 μl of the following mixture:
(§6) 81 mg of FFA free albumin
(§7) 1.5 ml of 0.5 mM palmitoyl CoA
(§8) Then there are added to these test tubes 50 μl of water, 50 μl of 10 mM carnitine and 0.25 μCi^3 H-carnitine, and the tubes are placed in a 30° C. water bath.
(§9) (3) Mitochondrial Suspensions
(§10) Twelve plastic incubation tubes are prepared by adding the following to the tubes:
(§11) To each of the tubes, except 1 and 3, are added 30 μl of 200 mM ATP, 20 μl of 333 mM MgCl2 and 50 μl of 1.5 mg/ml CoA. 800 μl of mitochondria from step (1) above are added to each tube, and the tubes are incubated at room temperature for 20 minutes. The tubes are centrifuged at 7,900 xg for 3 minutes and the resultant pellet is resuspended in 1 ml chilled 150 mM KCl, 5 mM TRIS, pH 7.4.
(§12) 50 μl of mitochondrial suspension from step (3) above is added to the 28 tubes from step (2) as follows: (at 15 second intervals):
(§13) The tubes are incubated for 5 minutes at 30° C. and then there is added to each tube, at 15-second intervals, 50 μl of concentrated HCl, 1.45 ml water and 1 ml of n-butanol. The tubes are mixed, chilled in ice for 20 minutes and then centrifuged for 10 minutes at 2500 rpm to clarify the layers. Thereafter, 500 μl of the upper butanol layer of each tube is pipetted into 100 μl of water and 500 μl butanol saturated water, the tubes are mixed and chilled in ice for 20 minutes and centrifuged again for 10 minutes at 2500 rpm. 200 μl of the butanol layer of each tube is pipetted into a scintillation vial to which is added 10 ml of Aquasol, and the samples are counted in a Packard Tri-Carb Scintillation Counter.
(§14) The results are used to calculated the percentage of inhibition of carnitine palmitoyl transferase by the compounds tested.
When tested in the above assay using liver mitochondria alone, other compounds of the invention give the following results.

[2] = Bachmann et al. 1984, Lee et al. 1982 and 1985; cited from earlier work
[3] = biological target: T2, carnitine palmitoyl transferase in heart mitochondria (Rattus norvegicus, UniProt Q63704); assay: Inhibition of carnitine palmitoyl transferase activity in heart mitochondria; type: biochemical; conditions: for inhibition at 0.1 µM: 0.10 μM; for inhibition at 0.5 µM: 0.50 μM
T2 construct: to obtain a heart mitochondria fraction; from tissue; host or cells: rat heart mitochondria
T2 sequence (Q63704 1-772): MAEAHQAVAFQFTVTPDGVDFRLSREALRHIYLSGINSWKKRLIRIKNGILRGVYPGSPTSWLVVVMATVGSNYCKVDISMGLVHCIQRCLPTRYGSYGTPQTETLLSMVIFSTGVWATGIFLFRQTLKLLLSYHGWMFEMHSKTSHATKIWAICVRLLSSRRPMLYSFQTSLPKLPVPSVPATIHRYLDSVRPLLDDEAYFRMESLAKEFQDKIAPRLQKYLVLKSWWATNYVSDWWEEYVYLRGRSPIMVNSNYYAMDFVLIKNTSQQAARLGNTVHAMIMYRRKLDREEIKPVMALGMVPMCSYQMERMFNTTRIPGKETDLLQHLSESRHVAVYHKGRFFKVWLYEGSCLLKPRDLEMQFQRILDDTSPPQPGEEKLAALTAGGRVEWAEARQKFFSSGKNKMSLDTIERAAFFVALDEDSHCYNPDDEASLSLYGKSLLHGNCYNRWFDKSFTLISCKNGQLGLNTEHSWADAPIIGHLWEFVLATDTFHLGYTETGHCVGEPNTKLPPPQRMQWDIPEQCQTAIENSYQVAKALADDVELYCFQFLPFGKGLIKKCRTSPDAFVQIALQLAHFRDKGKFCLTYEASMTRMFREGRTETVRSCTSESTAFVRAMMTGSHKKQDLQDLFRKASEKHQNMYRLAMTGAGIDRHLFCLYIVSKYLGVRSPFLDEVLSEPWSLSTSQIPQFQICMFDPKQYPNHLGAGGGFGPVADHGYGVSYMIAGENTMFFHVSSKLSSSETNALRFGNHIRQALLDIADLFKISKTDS
Experimental: as §1, §2, §3, §4
(b) heart mitochondria: four rat hearts are processed as described in step (a) above to obtain a heart mitochondria fraction.
as §5, §6, §7, §8, §9, §10, §11, §12, §13, §14

[4] = Table 2 (Example 10), liver mitochondria alone, read-out: % Inhibition of Hepatic CPTase, IC50
[5] = at 50 μM, Example 9, second (untitled) table, read-out: % Maximal Inhibition of Cardiac CTPase at 50 μM
[6] = Example 9, second (untitled) table, liver mitochondria, read-out: Inhibition of Hepatic CPTase, IC50
[7] = read-out: % Inhibition ± SEM, heart
[8] = 50.0 μM, read-out: % Inhibition ± SEM, heart
[9] = Table 1, liver mitochondria, ± SEM, read-out: IC50, liver

SMILES: CCCCCCCCCCCCCCC1(C(=O)OC)CO1 (stereo not drawn) [methyl ester of 2-tetradecylglycidate]
- cardiac effects from chronic administration, in words [2]: adverse cardiac effects

SMILES: COC(=O)C1(C(F)CCCCCOc2ccc(Cl)cc2)CO1 (single isomer, unassigned) [3 (isomer B), 2-[6-(4-Chlorophenoxy)-1-fluorohexyl]-2-oxiranecarboxylic acid methyl ester]
- IC50 [1, 4]: 1750 nM

SMILES: O=C(O)C1(C(F)CCCCOc2ccc(Cl)cc2)CO1 (single isomer, unassigned) [Example 4, 2-[5-(4-Chlorophenoxy)-1-fluoropentyl]-2-oxiranecarboxylic acid sodium salt]
- IC50 [1, 4]: 500 nM

SMILES: O=C(O)C1(C(F)(F)CCCCCOc2ccc(Cl)cc2)CO1 (stereo not drawn) [Example 8, 2-[6-(4-Chlorophenoxy)-1,1-difluorohexyl]-2-oxiranecarboxylic acid sodium salt]
- inhibition at 50 µM [3, 5]: 24 ± 6%
- IC50 [1, 6]: 250 nM

SMILES: O=C(O)C1(C(F)CCCCCOc2ccc(Cl)cc2)CO1 (single isomer, unassigned) [Example 5, 2-[6-(4-Chlorophenoxy)-1-fluorohexyl]-2-oxiranecarboxylic acid sodium salt]
- IC50 [1, 4]: 520 nM

SMILES: COC(=O)C1(C(F)CCCCCOc2ccc(Cl)cc2)CO1 (single isomer, unassigned) [3 (isomer A), 2-[6-(4-chlorophenoxy)-1-fluorohexyl]-2-oxiranecarboxylic acid methyl ester]
- IC50 [1, 4]: 850 nM

More lines, now with the values ahead:

- IC50 [1, 4]: 1080 nM
SMILES: COC(=O)C1(C(F)CCCCc2ccccc2)CO1 (single isomer, unassigned) [Example 1 (isomer A), 2-(1-Fluoro-5-phenylpentyl)-2-oxiranecarboxylic acid methyl ester]

- inhibition at 50 µM [3, 5]: 26 ± 4%
- IC50 [1, 6]: 350 nM
SMILES: COC(=O)C1(C(F)(F)CCCCCOc2ccc(Cl)cc2)CO1 (stereo not drawn) [Example 7 (gem-difluoro compound), 2-[6-(4-Chlorophenoxy)-1,1-difluorohexyl]-2-oxiranecarboxylic acid methyl ester]

- inhibition at 0.05 µM [3, 7]: 6 ± 5%
- inhibition at 0.1 µM [3, 7]: 17 ± 5%
- inhibition at 0.5 µM [3, 7]: 18 ± 4%
- inhibition at 1 µM [3, 7]: 34 ± 3%
- inhibition at 2 µM [3, 7]: 35 ± 3%
- inhibition at 5 µM [3, 7]: 40 ± 4%
- inhibition at 10 µM [3, 7]: 50 ± 2%
- inhibition at 50 µM [3, 8]: 52 ± 4%
- inhibition at 0.05 µM [1]: 5 ± 3%
- inhibition at 0.1 µM [1]: 11 ± 5%
- inhibition at 0.5 µM [1]: 23 ± 7%
- inhibition at 1 µM [1]: 61 ± 9%
- inhibition at 2 µM [1]: 78 ± 7%
- inhibition at 5 µM [1]: 79 ± 8%
- inhibition at 10 µM [1]: 80 ± 9%
- inhibition at 50 µM [1]: 82 ± 10%
- IC50 [1, 9]: 970 ± 180 nM
- IC50 [1, 4]: 970 nM
SMILES: COC(=O)C1(C(F)CCCCOc2ccc(Cl)cc2)CO1 (single isomer, unassigned) [Example 2 (isomer A), 2-[5-(4-Chlorophenoxy)-1-fluoropentyl]-2-oxiranecarboxylic acid methyl ester]

- inhibition at 0.05 µM [3, 7]: 5 ± 6%
- inhibition at 0.1 µM [3, 7]: 8 ± 7%
- inhibition at 0.5 µM [3, 7]: 36 ± 10%
- inhibition at 1 µM [3, 7]: 38 ± 15%
- inhibition at 2 µM [3, 7]: 51 ± 15%
- inhibition at 5 µM [3, 7]: 68 ± 11%
- inhibition at 10 µM [3, 7]: 81 ± 1%
- inhibition at 50 µM [3, 8]: 84 ± 1%
- IC50 ([3]; Table 1, heart mitochondria, ± SEM): 250 nM
- inhibition at 50 µM [3, 5]: 85 ± 2%
- inhibition at 0.05 µM [1]: 9 ± 7%
- inhibition at 0.1 µM [1]: 11 ± 6%
- inhibition at 0.5 µM [1]: 60 ± 7%
- inhibition at 1 µM [1]: 79 ± 2%
- inhibition at 2 µM [1]: 82 ± 2%
- inhibition at 5 µM [1]: 86 ± 3%
- inhibition at 10 µM [1]: 83 ± 3%
- inhibition at 50 µM [1]: 85 ± 2%
- IC50 [1, 6]: 310 nM
- IC50 [1, 9]: 330 ± 40 nM
SMILES: CCOC(=O)C1(CCCCCCOc2ccc(Cl)cc2)CO1 (stereo not drawn) [Compound A, 2-[6-(4-chlorophenoxy)hexyl]oxirane-2-carboxylic acid ethyl ester, reference compound]
